Measured values as given in ChEMBL document CHEMBL1148813, “Discovery and characterization of novel, potent, non-peptide parathyroid hormone-1 receptor antagonists” (J Med Chem, 2007).

What was measured:
[1] = molecular target: T1, Parathyroid hormone/parathyroid hormone-related peptide receptor (Homo sapiens, UniProt Q03431); assay: Displacement of [125I]-[Nle,8,18 Tyr34]-hPTH(1-34) from human recombinant PTH1R expressed in HEK293 cells; format: cell-based
T1 sequence (Q03431 whole entry): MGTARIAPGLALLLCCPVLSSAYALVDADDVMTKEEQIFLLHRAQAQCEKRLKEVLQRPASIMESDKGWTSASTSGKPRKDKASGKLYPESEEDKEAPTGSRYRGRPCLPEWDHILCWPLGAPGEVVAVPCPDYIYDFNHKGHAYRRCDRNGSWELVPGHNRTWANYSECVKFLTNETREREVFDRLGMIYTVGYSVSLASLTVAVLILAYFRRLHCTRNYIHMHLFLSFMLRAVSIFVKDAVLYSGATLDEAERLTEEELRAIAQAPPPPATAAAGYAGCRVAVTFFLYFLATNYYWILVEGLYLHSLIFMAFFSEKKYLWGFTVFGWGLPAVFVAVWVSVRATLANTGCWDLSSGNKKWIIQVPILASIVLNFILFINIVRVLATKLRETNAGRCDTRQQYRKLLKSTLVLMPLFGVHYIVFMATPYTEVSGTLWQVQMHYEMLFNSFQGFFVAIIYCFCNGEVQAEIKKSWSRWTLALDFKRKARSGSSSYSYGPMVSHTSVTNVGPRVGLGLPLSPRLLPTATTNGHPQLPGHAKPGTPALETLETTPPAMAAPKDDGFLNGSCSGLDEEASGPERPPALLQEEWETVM

[2] = molecular target: T2, Parathyroid hormone/parathyroid hormone-related peptide receptor (Homo sapiens) (UniProt Q03431); assay: Displacement of [125I]-[Nle,8,18 Tyr34]-hPTH(1-34) from human recombinant PTH1R expressed in HEK293 cells at 10 uM; format: cell-based
T2 sequence (whole entry): T1 sequence (Q03431 whole entry)

[3] = molecular target: Parathyroid hormone 2 receptor (Homo sapiens) (UniProt P49190); assay: Antagonist activity at human recombinant PTH2 receptor expressed in CHOK1 cells assessed as inhibition of TIP (1-39)-stimulated cAMP production at 10 uM; details: read-out: pA2 (converted)
Sequence of Parathyroid hormone 2 receptor (Homo sapiens) (P49190 whole entry, looked up): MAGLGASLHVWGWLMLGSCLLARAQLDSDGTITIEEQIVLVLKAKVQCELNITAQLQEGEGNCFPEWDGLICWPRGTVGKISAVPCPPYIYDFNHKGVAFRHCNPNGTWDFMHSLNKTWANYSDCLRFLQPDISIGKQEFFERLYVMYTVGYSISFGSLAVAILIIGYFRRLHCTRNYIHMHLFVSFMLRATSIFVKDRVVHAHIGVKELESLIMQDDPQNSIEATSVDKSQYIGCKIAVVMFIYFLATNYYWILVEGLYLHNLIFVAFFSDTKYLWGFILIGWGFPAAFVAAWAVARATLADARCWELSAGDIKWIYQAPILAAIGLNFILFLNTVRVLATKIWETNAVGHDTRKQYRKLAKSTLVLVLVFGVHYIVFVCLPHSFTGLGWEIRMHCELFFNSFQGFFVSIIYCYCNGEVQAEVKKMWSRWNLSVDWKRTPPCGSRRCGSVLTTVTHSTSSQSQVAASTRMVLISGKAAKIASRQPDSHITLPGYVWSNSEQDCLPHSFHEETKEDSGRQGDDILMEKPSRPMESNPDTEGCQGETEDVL

[4] = molecular target: T1, Parathyroid hormone/parathyroid hormone-related peptide receptor; assay: Antagonist activity at human recombinant PTH1 receptor expressed in HEK293 cells assessed as inhibition of PTH(1-34)-stimulated cAMP production; format: functional, cell-based; details: read-out: pA2 (converted)
[5] = molecular target: T3, Parathyroid hormone/parathyroid hormone-related peptide receptor (Mus musculus, UniProt P41593); assay: Antagonist activity at mouse wild type PTH1 receptor expressed in MC3T3E1 cells assessed as inhibition of PTHrP (1-34)-stimulated cAMP production at 3 uM; format: functional, cell-based; details: read-out: pA2 (converted)
T3 sequence (P41593 whole entry): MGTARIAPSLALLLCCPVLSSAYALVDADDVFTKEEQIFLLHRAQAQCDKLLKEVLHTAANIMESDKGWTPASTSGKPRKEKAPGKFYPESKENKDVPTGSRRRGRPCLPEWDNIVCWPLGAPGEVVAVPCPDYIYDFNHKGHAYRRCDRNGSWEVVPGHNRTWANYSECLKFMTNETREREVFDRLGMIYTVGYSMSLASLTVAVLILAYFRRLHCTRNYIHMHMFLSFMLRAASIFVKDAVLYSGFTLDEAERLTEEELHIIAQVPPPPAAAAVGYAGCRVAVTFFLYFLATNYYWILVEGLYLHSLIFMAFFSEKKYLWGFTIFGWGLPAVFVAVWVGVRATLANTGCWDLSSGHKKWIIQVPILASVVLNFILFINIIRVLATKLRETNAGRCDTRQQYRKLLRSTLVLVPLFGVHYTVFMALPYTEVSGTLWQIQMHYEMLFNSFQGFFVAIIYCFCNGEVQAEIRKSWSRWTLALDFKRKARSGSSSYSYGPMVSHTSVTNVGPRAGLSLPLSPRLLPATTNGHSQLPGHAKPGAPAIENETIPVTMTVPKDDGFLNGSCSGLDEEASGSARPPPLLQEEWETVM

[6] = molecular target: T1, Parathyroid hormone/parathyroid hormone-related peptide receptor; assay: Antagonist activity at human wild type PTH1 receptor expressed in SaOS2 cells assessed as inhibition of PTHrP (1-34)-stimulated cAMP production at 3 uM; format: functional, cell-based, SAOS-2; details: read-out: pA2 (converted)
[7] = molecular target: T2, Parathyroid hormone/parathyroid hormone-related peptide receptor (Homo sapiens); assay: Antagonist activity at human wild type PTH1 receptor expressed in SaOS2 cells assessed as inhibition of PTHrP (1-34)-stimulated cAMP production; format: functional, cell-based; details: SAOS-2
[8] = species: Homo sapiens; assay: Selectivity for human recombinant PTH1 receptor over human recombinant PTH2 receptor
[9] = molecular target: T2, Parathyroid hormone/parathyroid hormone-related peptide receptor (Homo sapiens); assay: Displacement of [125I]-[Nle,8,18 Tyr34]-hPTH(1-34) from human recombinant PTH1R expressed in HEK293 cells at 1 uM; format: cell-based

Q: Which Ki [1] does the source give for `N=C(N)Nc1ccc(CN2C(=O)N(Cc3ccccc3)N=C(C3CCCCC3)c3ccccc32)cc1` here?
A: 0.933 µM

Q: With `N=C(N)Nc1ccc(N2C(=O)N(Cc3ccccc3)N=C(CC3CCCCC3)c3ccccc32)cc1` as the molecule, how does the Ki [1] read?
A: 0.562 µM

Q: `N=C(N)Nc1ccc(N2C(=O)N(Cc3ccccc3)N=C(C3CCCCC3)c3ccccc32)cc1` was tested. Which Ki [1] did it give?
A: 0.708 µM

Q: `Cc1ccc2c(c1)N(c1ccc(NCCc3ncc[nH]3)cc1)C(=O)N(Cc1ccccc1)N=C2C1CCCCC1` was tested. Which Ki [1] did it give?
A: 0.0038 µM

Q: With `CCCN1N=C(C2CCCCC2)c2ccc(C)cc2N(c2ccc(NCCc3ncc[nH]3)cc2)C1=O` as the molecule, how does the Ki [1] read?
A: 0.00676 µM

Q: With `O=C1N(Cc2ccccc2)N=C(C2CCCCC2)c2ccccc2N1c1ccc(NC2=NCCN2)cc1` as the molecule, how does the Ki [1] read?
A: 0.288 µM

Q: Which Ki [1] does the source give for `Cc1ccc2c(c1)N(c1ccc(NC(=O)C(N)C(C)C)cc1)C(=O)N(Cc1ccccc1)N=C2C1CCCCC1` (stereo not given) here?
A: 0.112 µM

Q: `Cc1ccc2c(c1)N(c1ccc(NCCc3ncc[nH]3)cc1)C(=O)N(C(C)C)N=C2C1CCCCC1` was tested. Which Ki [1] did it give?
A: 0.00355 µM

Q: For `Cc1cc2c(cc1NCc1ccccc1)C(C1CCCCC1)=NN(C)C(=O)N2c1ccc(NCCc2ncc[nH]2)cc1`, which Ki [1] is on record?
A: 0.00145 µM

Q: Which Ki [1] does the source give for `Cc1ccc2c(c1)N(c1ccc(NC3=NCCN3)cc1)C(=O)N(Cc1ccccc1)N=C2C1CCCCC1` here?
A: 0.0708 µM

Q: `NCC(=O)Nc1ccc(N2C(=O)N(Cc3ccccc3)N=C(C3CCCCC3)c3ccccc32)cc1` was tested. Which Ki [1] did it give?
A: 0.676 µM

Q: Which inhibition [2] does the source give for `CC(C)C1=NN(Cc2ccccc2)C(=O)N(c2ccc(NC(=N)N)cc2)c2ccccc21` here?
A: 43%

Q: With `CC(C)C(N)C(=O)Nc1ccc(N2C(=O)N(Cc3ccccc3)N=C(C3CCCCC3)c3ccccc32)cc1` (stereo not given) as the molecule, how does the Ki [1] read?
A: 0.38 µM

Q: Which Ki [1] does the source give for `N=C(N)Nc1ccc(N2C(=O)N(Cc3ccccc3)N=C(c3ccccc3)c3ccccc32)cc1` here?
A: 3.39 µM

Q: Which results are given for `Cc1ccc2c(c1)N(c1ccc(NCCc3ncc[nH]3)cc1)C(=O)N(C)N=C2C1CCCCC1`?
A: Kb [3]: 2.88 µM; Kb [4]: 0.017 µM; Kb [5]: 0.513 µM; Kb [6]: 0.0195 µM; pKb [7]: 7.55; Ki [1]: 0.0132 µM; Selectivity ratio [8]: 100

Q: For `N=C(N)Nc1cccc(N2C(=O)N(Cc3ccccc3)N=C(C3CCCCC3)c3ccccc32)c1`, which Ki [1] is on record?
A: 2.82 µM

Q: How did the Ki [1] turn out when `O=C(O)c1ccc(N2C(=O)N(Cc3ccccc3)N=C(C3CCCCC3)c3ccccc32)cc1` was run?
A: > 100 µM

Q: How did the inhibition [9] turn out when `Nc1ccc(N2C(=O)N(Cc3ccccc3)N=C(C3CCCCC3)c3ccccc32)cc1` was run?
A: 39%

Q: How did the Ki [1] turn out when `Cc1ccc2c(c1)N(c1ccc(NCCc3ncc[nH]3)cc1)C(=O)N(C1CCc3ccccc3CC1)N=C2C1CCCCC1` was run?
A: 0.000912 µM

Q: With `Cc1ccc2c(c1)N(c1ccc(NCCc3ncc[nH]3)cc1)C(=O)N(C1CCOCC1)N=C2C1CCCCC1` as the molecule, how does the Ki [1] read?
A: 0.00661 µM

Q: Which inhibition [2] does the source give for `N=C(N)Nc1ccc(N2C(=O)N(Cc3ccccc3)N=C(CN3CCCCC3)c3ccccc32)cc1` here?
A: 27%

Q: How did the Ki [1] turn out when `COCCN1N=C(C2CCCCC2)c2ccc(C)cc2N(c2ccc(NCCc3ncc[nH]3)cc2)C1=O` was run?
A: 0.0832 µM

Q: Which Ki [1] does the source give for `Cc1ccc2c(c1)N(c1ccc(NCCc3ncc[nH]3)cc1)C(=O)N(C)N=C2C1CCOCC1` here?
A: 0.617 µM

Q: `Cc1ccc2c(c1)N(c1ccc(NCCc3ncc[nH]3)cc1)C(=O)N(C1COc3ccccc3OC1)N=C2C1CCCCC1` was tested. Which Ki [1] did it give?
A: 0.00871 µM

Q: With `Cc1ccc2c(c1)N(c1ccc(NCc3ncc[nH]3)cc1)C(=O)N(C)N=C2C1CCCCC1` as the molecule, how does the Ki [1] read?
A: 0.0501 µM

Q: How did the Ki [1] turn out when `Cc1ccc2c(c1)N(c1ccc(NCCCc3ncc[nH]3)cc1)C(=O)N(C)N=C2C1CCCCC1` was run?
A: 0.0204 µM

Q: For `Cc1ccc2c(c1)N(c1ccc(NCCc3ncc[nH]3)cc1)C(=O)N(C1CCc3ccccc3CC1)N=C2C1CCOCC1`, which Ki [1] is on record?
A: 0.00676 µM

Q: For `Cc1ccc2c(c1)N(c1ccc(NC(=N)N)cc1)C(=O)N(Cc1ccccc1)N=C2C1CCCCC1`, which Ki [1] is on record?
A: 0.155 µM

Q: Which Ki [1] does the source give for `Cc1cc2c(cc1OCc1ccccc1)C(C1CCCCC1)=NN(C)C(=O)N2c1ccc(NCCc2ncc[nH]2)cc1` here?
A: 0.00182 µM
